Experimental findings from PubChem BioAssay (NCI) are described below.

Test systems include SF-295 CNS; UACC-257 melanoma; RPMI-8226 leukemia; SNB-75 CNS; HOP-62 NSCLC; A498 renal; ACHN renal; BT-549 breast; OVCAR-3 ovarian; COLO 205 colon.
Common to all, as to experiment: DTP human tumour cell line panel, 48 h

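Growth conditions: 96-well plates. Treatment: test compound, 48 hours, 5 concentrations. Analysis: linear interpolation between bracketing concentrations; unreached endpoints set to highest concentration. At the GI50, growth is halved. TGI: concentration producing complete growth inhibition.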

Take `NCCNc1nc2ccc(F)cc2c2c(=O)c3cc(F)ccc3sc12`: the GI50 with SF-295 CNS was 1.88 µM; in the experiment on UACC-257 melanoma, 2.69 µM; in the experiment with RPMI-8226 leukemia, 2.18 µM; in the experiment on SNB-75 CNS it was 0.138 µM; in the experiment on HOP-62 NSCLC, 1.39 µM; in the experiment with A498 renal, 1.64 µM. Moreover, the GI50 in the experiment on ACHN renal is 1.5 µM; with BT-549 breast, 9.72 µM; in the experiment with OVCAR-3 ovarian, 1.63 µM. Besides, the TGI is 3.59 µM with SF-295 CNS; 7.8 µM in the experiment with UACC-257 melanoma; 5.11 µM in the experiment with RPMI-8226 leukemia; 5.02 µM in the experiment on SNB-75 CNS; 2.87 µM in the experiment with HOP-62 NSCLC; 6.9 µM in the experiment on A498 renal. The values for the concentration for total growth inhibition (TGI) in the experiment on ACHN renal, with BT-549 breast and in the experiment with OVCAR-3 ovarian were 2.83 µM, 24.1 µM and 3.15 µM, respectively.

Take `COc1ccccc1C(=O)Nc1ccc(Cl)c(C(=O)OC(C)C)c1`: the TGI is > 100 µM with SF-295 CNS; > 77.1 µM with UACC-257 melanoma; 77.6 µM in the experiment with RPMI-8226 leukemia; > 100 µM in the experiment with SNB-75 CNS; > 100 µM in the experiment with HOP-62 NSCLC; > 90.4 µM in the experiment on A498 renal. The TGI in the experiment on COLO 205 colon was > 100 µM; in the experiment with ACHN renal, 28.4 µM; with BT-549 breast it was > 100 µM; with OVCAR-3 ovarian it was > 65.4 µM.

In the case of `CN1CCN(c2ccc(NC(=O)c3cncnc3Nc3ccc4c(ccn4Cc4cccc(F)c4)c3)cc2)CC1`, the GI50 is 5.41 µM in the experiment with SF-295 CNS; 0.68 µM with UACC-257 melanoma; 0.754 µM in the experiment on RPMI-8226 leukemia; 4.27 µM in the experiment with SNB-75 CNS; 3.9 µM in the experiment with HOP-62 NSCLC; 2.16 µM with A498 renal. The GI50 in the experiment on COLO 205 colon is 0.905 µM; in the experiment on ACHN renal, 1.73 µM; in the experiment on BT-549 breast, 5.23 µM; in the experiment on OVCAR-3 ovarian it was 4.08 µM. Moreover, the concentration for total growth inhibition (TGI) in the experiment on SF-295 CNS amounted to 10.5 µM; in the experiment on UACC-257 melanoma it was 1.45 µM; with RPMI-8226 leukemia, 1.79 µM; in the experiment on SNB-75 CNS, 8.51 µM; in the experiment on HOP-62 NSCLC it was 8.84 µM; with A498 renal, 6.76 µM. For the same compound, the TGI was 2.64 µM in the experiment with COLO 205 colon, 5.89 µM in the experiment on ACHN renal, 9.78 µM with BT-549 breast and 8.48 µM with OVCAR-3 ovarian.

On to `COc1ccc(C(=O)c2cc(C)c(OC)c(C)c2)c(OC)c1OC(=O)C(Cl)Cl`, for which the concentration for 50% growth inhibition (GI50) in the experiment with SF-295 CNS is 0.164 µM; with UACC-257 melanoma, 25.6 µM; in the experiment on RPMI-8226 leukemia, 0.0416 µM; in the experiment on SNB-75 CNS, 0.031 µM; in the experiment on HOP-62 NSCLC, 0.221 µM; in the experiment with A498 renal it was 1.74 µM. In addition, the GI50 is 6.74 µM with COLO 205 colon, 0.0554 µM in the experiment on ACHN renal, 0.0293 µM in the experiment on BT-549 breast and 0.0353 µM in the experiment with OVCAR-3 ovarian. For the same compound, the TGI in the experiment on SF-295 CNS was > 25.1 µM; in the experiment with UACC-257 melanoma, > 100 µM; with RPMI-8226 leukemia, 27.8 µM; in the experiment with SNB-75 CNS it was > 100 µM; in the experiment with HOP-62 NSCLC, > 100 µM; in the experiment on A498 renal it was 5.89 µM. The total growth inhibition concentration (TGI) with COLO 205 colon was 32.4 µM; with ACHN renal it was > 100 µM; in the experiment with BT-549 breast it was 1.7 µM.

As to `COc1ncc(-c2ccc3ncnc(Nc4cccc(Cl)c4)c3c2)cc1NS(C)(=O)=O`, the GI50 is 1.71 µM in the experiment with SF-295 CNS; 2.19 µM with RPMI-8226 leukemia; 0.158 µM in the experiment with SNB-75 CNS; 1.53 µM in the experiment on HOP-62 NSCLC; 0.605 µM in the experiment on A498 renal; 1.75 µM in the experiment on COLO 205 colon. For the same compound, the values for the GI50 in the experiment with ACHN renal, in the experiment with BT-549 breast and in the experiment with OVCAR-3 ovarian were 0.485 µM, 1.92 µM and 1.17 µM, respectively. The TGI was 10.8 µM in the experiment with SF-295 CNS; 9.24 µM in the experiment on RPMI-8226 leukemia; 5.82 µM in the experiment on SNB-75 CNS; 42.4 µM in the experiment on HOP-62 NSCLC; 2.94 µM in the experiment on A498 renal; 7.36 µM in the experiment with COLO 205 colon. The concentration for total growth inhibition (TGI) with ACHN renal is > 100 µM; in the experiment with BT-549 breast, 9.32 µM; in the experiment on OVCAR-3 ovarian it was 7.7 µM.

For the compound `O=C(O)c1ccccc1C(=O)Nc1cc2c(cc1Br)-c1ccccc1C2=O`, the total growth inhibition concentration (TGI) with UACC-257 melanoma, with RPMI-8226 leukemia, with SNB-75 CNS, in the experiment on HOP-62 NSCLC, in the experiment on A498 renal and with COLO 205 colon was > 100 µM throughout. For the same compound, the concentration for total growth inhibition (TGI) in the experiment on ACHN renal, in the experiment with BT-549 breast and in the experiment on OVCAR-3 ovarian was > 100 µM throughout.

For `CCC1C[N+]2=C(c3cc(OC)c(OC)cc3CC2)c2c1cc1n2CCc2cc(OC)c(OC)cc2-1` (centres undefined), the GI50 in the experiment with SF-295 CNS is 6.37 µM; with RPMI-8226 leukemia, 0.576 µM; with SNB-75 CNS, 1.77 µM; with HOP-62 NSCLC, 3.51 µM; in the experiment with A498 renal, 7.36 µM; in the experiment on COLO 205 colon, 1.23 µM. The GI50 is 14.7 µM with ACHN renal, 2.69 µM in the experiment on BT-549 breast and 1 µM in the experiment with OVCAR-3 ovarian. Also, the concentration for total growth inhibition (TGI) with SF-295 CNS is 27.7 µM; in the experiment with RPMI-8226 leukemia, 15 µM; in the experiment with SNB-75 CNS, 7.48 µM; in the experiment with HOP-62 NSCLC, 26.5 µM; in the experiment on A498 renal, 33 µM; in the experiment with COLO 205 colon it was 3.71 µM. The TGI in the experiment with ACHN renal was found to be 30.1 µM; in the experiment on BT-549 breast, 13.5 µM; with OVCAR-3 ovarian it was 10.8 µM.

Turning to `C=CC(=O)N1CCC(CNc2ncnc(N)c2-c2ccc(Oc3ccccc3)cc2)CC1`, the GI50 with SF-295 CNS is 29 µM; with UACC-257 melanoma, 38.5 µM; in the experiment with RPMI-8226 leukemia it was 15.1 µM; in the experiment on SNB-75 CNS it was 13.4 µM; in the experiment with HOP-62 NSCLC it was 25.8 µM; with A498 renal, 10.7 µM. Also, the GI50 is 23.4 µM in the experiment on ACHN renal, 20.3 µM in the experiment on BT-549 breast and 27.6 µM in the experiment on OVCAR-3 ovarian. For the same compound, the total growth inhibition concentration (TGI) with SF-295 CNS was > 100 µM; with UACC-257 melanoma, > 100 µM; in the experiment on RPMI-8226 leukemia, 42.6 µM; in the experiment with SNB-75 CNS, 58.9 µM; with HOP-62 NSCLC it was 82.6 µM; in the experiment on A498 renal, 31.9 µM. In addition, the TGI with ACHN renal turned out to be 70.7 µM; with BT-549 breast, 70.1 µM; in the experiment with OVCAR-3 ovarian, 85.1 µM.

On to `C#CCn1c2c(c3ccccc3c1=O)C(=O)c1ccccc1-2`, for which the concentration for total growth inhibition (TGI) in the experiment on SF-295 CNS was 94.3 µM; with UACC-257 melanoma, > 100 µM; in the experiment on RPMI-8226 leukemia, > 100 µM; in the experiment with SNB-75 CNS it was 27.4 µM; in the experiment with HOP-62 NSCLC it was 24.1 µM; with A498 renal it was 82.9 µM. The figures for the total growth inhibition concentration (TGI) in the experiment with COLO 205 colon, in the experiment with BT-549 breast and in the experiment with OVCAR-3 ovarian were > 100 µM, > 100 µM and 29.6 µM, respectively.

The term GI50 denotes the concentration at which growth is held to half of that of the control. By TGI is commonly meant the concentration giving total growth inhibition. Higher therefore signals less potent growth arrest.
